These results are taken from ChEMBL document CHEMBL1201862, “PubChem BioAssay data set” (2004).

Active and inactive are the calls of the source. Where only a bound is given, the exact number is not on record here.

Assay [1] addresses Envelope glycoprotein gp160 (Human immunodeficiency virus 1, UniProt Q6QLK5). In words: cell-free HIV fusion peptide-binding blockers – biochemical, uHTS, fluorescence dequenching, […] (AID 1986).
Assay [2] deals with Streptococcus sp. 'group A'. Briefly: Streptococcus pyogenes SK(-)GAS viability under kanamycin – luminescence, BacTiterGlo, confirmation, counter-screen for streptokinase expression inhibitor project, dose response (AID 1900). In kind it is functional, organism-based.
A short description of assay [3]: CCR5-tropic HIV-1 fusion blockers – cell-based, CCR5-tropic Env, dose response (AID 2279). In kind it is functional.
The subject of assay [4] is Streptococcus. Briefly: GAS UMAA2166 growth inhibition – luminescence, BacTiterGlo, counter-screen for streptokinase expression inhibitor project, dose response (AID 1915).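 Further: potency for reduction of bacterial viability or growth.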 Format: functional, organism-based. Background: Counterscreens check selectivity or assay interference.
Assay [5] can be described thus: CellTiter-Glo luminescence survival assay, SW480 colon tumor line, concentration-response curve, half-maximal inhibitory concentration (AID 1117338). Format: functional. On the technique in general: ATP-based viability assays read luminescence as a measure of living cells.
The nature of assay [6]: RKO cell viability reduction, dose response, CellTiter-Glo luminescence (AID 1117322). In kind it is functional.
Assay [7] is described as follows: cytotoxicity toward HCT116 cells – cell-based, CellTiter-Glo luminescence, IC50, dose response (AID 1117332). In kind it is functional. To be noted: HCT-116.
The nature of assay [8]: SNU-C1 cell viability reduction, dose response, CellTiter-Glo luminescence (AID 1117323). Format: functional, cell-based.
Assay [9] can be described thus: glucagon-like peptide-1 release potency in STC-1, concentration-response, half-maximal inhibitory concentration in the STC-1 line (AID 1117345). In kind it is functional, cell-based.
The nature of assay [10]: cytotoxicity toward Colo320 cells – cell-based, CellTiter-Glo luminescence, IC50, dose response (AID 1117334). Format: functional. To be noted: COLO 320.
Assay [11] in a line: cytotoxicity toward HT-29 cells – cell-based, CellTiter-Glo luminescence, IC50, dose response (AID 1117330). In kind it is functional.
Assay [12] is described as follows: Reduced DLD-1 viability, concentration-response, CellTiter-Glo luminescence (AID 1117352). Format: functional.
A short description of assay [13]: Potency on glucagon-like peptide 1 release, dose-response in NCI-H716 cell line, half maximal inhibitory concentration (AID 1117344). Format: functional, cell-based.
The target in assay [14] is Eukaryotic translation initiation factor 4H (Homo sapiens, UniProt Q15056). Briefly: eIF4H binding inhibition – biochemical, uHTS, fluorescence polarization, translation initiation inhibitor project, primary screen (AID 2012). For orientation: Polarisation of emitted light reports the rotation of a fluorescent probe.
Assay [15] has as its target Polyadenylate-binding protein 1 (Homo sapiens, UniProt P11940). Briefly: blockers of PABP interaction with poly(A) – biochemical, fluorescence polarization, […] (AID 2014).
The target in assay [16] is Chaperone protein dnaK (Escherichia coli, UniProt C3TRK2). Briefly: E. coli DnaK binders, calorimetric Kd – biophysical, isothermal titration calorimetry, beta-domain, full-length DnaK, orthogonal assay for DnaK modulator project, SAR follow-up (AID 1495).
The subject of assay [17] is HeLa. In words: viability loss in HeLa cells – cell-based, 24 h, cherry-picked samples, cytotoxicity control, dose response (AID 504726).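 Further: potency for cytotoxicity as loss of luminescence signal.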 In kind it is functional. As to conditions: Homo sapiens.
The target of assay [18] is T1, Mannose-6-phosphate isomerase (Homo sapiens, UniProt P34949).
T1 sequence (P34949 whole entry): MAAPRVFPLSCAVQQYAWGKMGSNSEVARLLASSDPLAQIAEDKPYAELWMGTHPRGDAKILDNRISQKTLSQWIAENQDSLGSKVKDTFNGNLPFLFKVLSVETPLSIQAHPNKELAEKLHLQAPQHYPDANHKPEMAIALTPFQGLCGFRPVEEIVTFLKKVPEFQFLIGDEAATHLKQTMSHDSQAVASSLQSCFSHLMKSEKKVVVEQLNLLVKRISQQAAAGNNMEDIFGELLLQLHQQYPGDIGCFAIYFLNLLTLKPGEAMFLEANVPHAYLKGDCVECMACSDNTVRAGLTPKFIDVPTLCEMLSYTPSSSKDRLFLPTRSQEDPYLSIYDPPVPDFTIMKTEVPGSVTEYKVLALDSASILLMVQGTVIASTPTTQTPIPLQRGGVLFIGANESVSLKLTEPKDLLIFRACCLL
In words: MPI enzyme activity inhibition – biochemical, fluorescence intensity, coupled assay, primary screen (AID 1209).

Assay [19] can be described thus: Trypanosoma cruzi growth suppression in host cells – NIH3T3 host cells, beta-gal luminescence, confirmation (AID 2044).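 Further: intracellular parasites grown in NIH/3T3 mouse fibroblasts as host cells; luminescent beta-galactosidase reporter signal from transgenic T. cruzi replicating inside host cells; inhibitors lower the luminescence signal.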 In kind it is functional, cell-based.
Assay [20] can be described thus: NIH3T3 cell viability loss – ATP luminescence, mouse fibroblasts, counter-screen, dose response (AID 2010).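 Further: cells exposed to compound for about 90 hours before reading.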 In kind it is functional, cell-based.
Assay [21] addresses T1, Mannose-6-phosphate isomerase. In words: phosphomannose isomerase inhibition – biochemical, fluorescence intensity, confirmation (AID 1535).
Assay [22] concerns the target Phosphomannomutase 2 (Homo sapiens, UniProt O15305). Briefly: Counter screen SAR assay for PMM2 inhibitors via a fluorescence intensity assay. [Related pubchem assays (depositor defined):AID1545, AID1574].
The target of assay [23] is Eukaryotic translation initiation factor 4E (Mus musculus, UniProt P63073). In words: blockers of eIF4G binding by eIF4E – biochemical, TR-FRET, dose response (AID 855).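 Further: potency for disrupting eIF4E binding to eIF4GI seen as loss of FRET.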 Format: functional.
Assay [24] addresses DNA dC->dU-editing enzyme APOBEC-3G (Homo sapiens, UniProt Q9HC16). Briefly: Dose Response confirmation of small molecule APOBEC3G DNA Deaminase Inhibitors via a fluorescence-based single-stranded DNA deaminase assay. [Related pubchem assays (depositor defined):AID493012, AID493028]. Format: functional.
The target in assay [25] is Melanin-concentrating hormone receptor 1 (Homo sapiens, UniProt Q99705). In words: Late-stage fluorescence-based counterscreen for antagonists of the G-protein coupled receptor 7 (GPR7): cell-based dose response assay to identify antagonists of the melanin-concentrating hormone receptor 1 (MCHR1). [Related pubchem assays (depositor defined):AID1861, AID1880, AID1952, AID2148, AID2251, AID2257, AID485339]. In kind it is functional.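 Further: stimulated with 30 nM MCH peptide agonist.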
Chain of Melanin-concentrating hormone receptor 1 (Q99705 whole entry): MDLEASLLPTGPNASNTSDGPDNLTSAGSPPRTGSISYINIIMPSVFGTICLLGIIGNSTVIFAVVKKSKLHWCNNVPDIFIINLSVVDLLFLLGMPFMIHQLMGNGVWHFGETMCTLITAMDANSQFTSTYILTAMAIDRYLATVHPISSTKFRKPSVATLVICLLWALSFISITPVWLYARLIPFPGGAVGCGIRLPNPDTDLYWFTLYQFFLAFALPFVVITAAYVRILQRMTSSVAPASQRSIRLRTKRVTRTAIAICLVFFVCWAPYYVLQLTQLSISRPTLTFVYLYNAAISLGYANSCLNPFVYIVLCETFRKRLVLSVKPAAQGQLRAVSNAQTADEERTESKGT

Chain of Envelope glycoprotein gp160 (Q6QLK5 whole entry, the tested form may be a part): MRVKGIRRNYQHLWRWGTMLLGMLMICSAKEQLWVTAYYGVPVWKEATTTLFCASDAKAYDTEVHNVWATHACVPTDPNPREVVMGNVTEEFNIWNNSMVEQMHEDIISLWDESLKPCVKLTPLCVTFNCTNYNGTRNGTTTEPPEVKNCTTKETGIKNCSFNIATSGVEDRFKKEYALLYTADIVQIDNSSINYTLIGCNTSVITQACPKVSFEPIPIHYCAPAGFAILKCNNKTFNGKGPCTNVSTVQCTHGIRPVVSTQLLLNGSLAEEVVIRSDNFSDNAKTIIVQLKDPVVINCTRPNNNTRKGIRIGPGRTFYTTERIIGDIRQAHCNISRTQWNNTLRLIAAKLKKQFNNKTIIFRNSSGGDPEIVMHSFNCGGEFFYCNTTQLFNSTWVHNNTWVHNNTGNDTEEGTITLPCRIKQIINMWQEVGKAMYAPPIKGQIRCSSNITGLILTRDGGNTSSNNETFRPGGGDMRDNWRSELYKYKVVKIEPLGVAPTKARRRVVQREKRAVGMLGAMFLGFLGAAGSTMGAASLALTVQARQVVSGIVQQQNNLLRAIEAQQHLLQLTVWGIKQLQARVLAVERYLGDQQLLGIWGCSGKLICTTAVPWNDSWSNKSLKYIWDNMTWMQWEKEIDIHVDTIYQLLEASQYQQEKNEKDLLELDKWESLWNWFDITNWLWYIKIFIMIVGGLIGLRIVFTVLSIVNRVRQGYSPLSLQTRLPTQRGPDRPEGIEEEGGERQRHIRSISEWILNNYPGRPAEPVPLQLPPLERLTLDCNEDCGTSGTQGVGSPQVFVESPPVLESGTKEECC
Chain of DNA dC->dU-editing enzyme APOBEC-3G (Q9HC16 whole entry): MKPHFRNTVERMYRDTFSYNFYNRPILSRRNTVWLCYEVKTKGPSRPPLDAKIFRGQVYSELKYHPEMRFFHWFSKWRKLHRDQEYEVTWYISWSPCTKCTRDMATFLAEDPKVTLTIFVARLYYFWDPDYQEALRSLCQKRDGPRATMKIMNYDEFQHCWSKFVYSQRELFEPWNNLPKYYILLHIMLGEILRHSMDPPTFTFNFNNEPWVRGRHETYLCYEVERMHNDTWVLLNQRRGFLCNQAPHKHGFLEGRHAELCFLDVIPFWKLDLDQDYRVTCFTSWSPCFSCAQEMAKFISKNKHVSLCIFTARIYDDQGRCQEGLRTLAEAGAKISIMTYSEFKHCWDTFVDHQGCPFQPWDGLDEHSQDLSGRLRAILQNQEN
Chain of Phosphomannomutase 2 (O15305 whole entry): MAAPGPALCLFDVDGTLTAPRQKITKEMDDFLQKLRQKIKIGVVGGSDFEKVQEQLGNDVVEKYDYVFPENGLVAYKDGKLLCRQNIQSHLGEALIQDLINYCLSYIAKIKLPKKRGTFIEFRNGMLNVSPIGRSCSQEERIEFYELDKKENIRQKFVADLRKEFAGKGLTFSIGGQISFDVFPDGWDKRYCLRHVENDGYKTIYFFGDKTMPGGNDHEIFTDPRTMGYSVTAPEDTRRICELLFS
Chain of Polyadenylate-binding protein 1 (P11940 whole entry): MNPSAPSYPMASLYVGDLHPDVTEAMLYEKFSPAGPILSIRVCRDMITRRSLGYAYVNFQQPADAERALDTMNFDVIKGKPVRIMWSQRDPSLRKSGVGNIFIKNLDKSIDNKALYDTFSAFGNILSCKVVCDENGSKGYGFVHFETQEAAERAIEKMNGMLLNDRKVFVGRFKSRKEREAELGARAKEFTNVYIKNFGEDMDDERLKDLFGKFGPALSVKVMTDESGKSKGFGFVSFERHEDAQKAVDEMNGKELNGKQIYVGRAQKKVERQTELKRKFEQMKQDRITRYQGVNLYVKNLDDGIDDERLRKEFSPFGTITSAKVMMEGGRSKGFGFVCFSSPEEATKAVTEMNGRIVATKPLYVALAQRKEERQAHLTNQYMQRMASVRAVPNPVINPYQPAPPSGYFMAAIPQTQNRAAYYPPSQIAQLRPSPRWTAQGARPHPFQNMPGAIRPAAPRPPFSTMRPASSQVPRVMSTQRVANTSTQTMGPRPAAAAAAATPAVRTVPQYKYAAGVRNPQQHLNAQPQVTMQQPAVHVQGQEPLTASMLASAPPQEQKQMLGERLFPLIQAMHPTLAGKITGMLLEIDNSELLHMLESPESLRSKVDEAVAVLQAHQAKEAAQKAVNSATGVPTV
Chain of Eukaryotic translation initiation factor 4E (P63073 whole entry): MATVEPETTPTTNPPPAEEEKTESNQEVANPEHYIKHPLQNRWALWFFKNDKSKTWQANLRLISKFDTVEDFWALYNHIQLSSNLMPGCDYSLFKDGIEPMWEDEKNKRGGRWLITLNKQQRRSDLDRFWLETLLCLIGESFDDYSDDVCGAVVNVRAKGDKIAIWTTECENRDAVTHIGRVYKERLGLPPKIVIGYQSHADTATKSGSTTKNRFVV
Chain of Chaperone protein dnaK (C3TRK2 whole entry): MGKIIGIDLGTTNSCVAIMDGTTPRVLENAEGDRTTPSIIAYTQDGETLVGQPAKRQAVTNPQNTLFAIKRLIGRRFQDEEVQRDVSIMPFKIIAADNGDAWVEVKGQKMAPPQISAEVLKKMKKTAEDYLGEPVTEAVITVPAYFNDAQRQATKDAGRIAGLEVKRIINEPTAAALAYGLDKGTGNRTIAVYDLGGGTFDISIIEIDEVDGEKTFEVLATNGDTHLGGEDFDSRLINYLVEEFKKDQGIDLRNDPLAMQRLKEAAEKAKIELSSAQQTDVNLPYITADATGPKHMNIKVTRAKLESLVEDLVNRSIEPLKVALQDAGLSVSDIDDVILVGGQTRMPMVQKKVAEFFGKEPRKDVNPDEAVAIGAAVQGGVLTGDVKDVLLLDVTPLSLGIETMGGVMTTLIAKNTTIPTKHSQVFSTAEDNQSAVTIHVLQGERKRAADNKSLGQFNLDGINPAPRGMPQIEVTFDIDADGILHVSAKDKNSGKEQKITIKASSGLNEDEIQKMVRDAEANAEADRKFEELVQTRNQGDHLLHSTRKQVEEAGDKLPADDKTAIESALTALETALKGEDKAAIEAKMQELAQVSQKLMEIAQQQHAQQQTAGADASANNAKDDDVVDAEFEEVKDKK

The IC50 is the point on the concentration scale where inhibition reaches its midpoint. The EC50 is the concentration needed to bring the measured effect to its halfway point. On to `O=C(Nc1ccc(Oc2ccc(Cl)cc2)c(Cl)c1)c1cc(I)cc(I)c1O` [RAFOXANIDE], for which the IC50 in [1] is 19.7 µM (active); in assay [3], 7.36 µM (active); in assay [5] it was 0.0108 µM (active); in assay [6], 0.0303 µM (active); in assay [7], 0.0169 µM (active); in assay [8], 0.0143 µM (active). In addition, the IC50 is 1.3 µM (active) in assay [9]; 0.054 µM (active) in assay [10]; 0.0095 µM (active) in [11]; 0.0084 µM (active) in assay [12]; > 40 µM (inactive) in assay [13]. The EC50 is 0.08 µM (active) in assay [2] and 0.137 µM (active) in [4].
As to `COc1ccc2[nH]c(O)c(N=NC(=O)Cc3cccs3)c2c1`, the values for the half-inhibitory concentration (IC50) in [14] and in [15] were 11 µM (active) and 31 µM (active), respectively.
As usually defined, the Kd is the concentration at which binding is half-saturated. Regarding `O=C(NCc1cccc2ccsc12)c1cccs1`, the Kd in [16] is 0.2 µM (active).
As usually defined, the AC50 is the concentration giving half of the maximal activity seen. In the case of `CC(=O)N/C(=C/c1ccc(OS(=O)(=O)c2ccc(C)cc2)cc1)C(=O)Nc1ccc(C(=O)O)cc1`, the AC50 in assay [17] is 132 µM (active).
For the compound `COc1ccc2nc(N=C(S)N(C)C)sc2c1`, the IC50 in [18] is 8.33 µM (active); in [21], 46.1 µM (active); in assay [22], > 100 µM (inactive); in assay [23], > 64 µM (inactive); in [24] it was 40.8 µM (active). Besides, the concentration giving a half-maximal response (EC50) in assay [19] is 2.03 µM (active); in assay [20], > 60 µM (inconclusive).
As to `COc1ccc(Oc2c(Cl)cnn(Cc3ccc(C)cc3)c2=O)cc1`, the concentration for half-maximal inhibition (IC50) in [25] is 6.3 µM (active).
